Where two headings read alike, the source gives them in different places. Values belong to the compound of their own block, whether it stands above or below them.
Assays:
[1] = GL itself; cited from earlier work
[2] = system: beta-glucuronidase; conditions: in cells, blood, cited from earlier work
[3] = system: MCF-7 cells; assay: growth of MCF-7 cells in GL/HPR-containing media (Table II); assay type: cell-based, human; conditions: 5 days
Description: The values shown are the mean +/- ISE for three experiments counted in triplicates. The numbers in parenthesis indicate the number of free floating (mostly non viable) cells in the media.

[4] = system: MCF-7 cells; assay: inhibition of MCF-7 breast cancer cell growth in culture (Example III); assay type: cell-based, human; conditions: for inhibition at 0.01 µM / inhibition at 0.1 µM / inhibition at 1 µM / inhibition at 10 µM: Homo sapiens, MCF7, read-out: inhibition of cell growth
Method: The MCF-7 cell line was derived from a hormone-dependent metastatic breast cancer. It has retained several characteristics of differentiated mammary epithelium, Soule et al., J. Natl. Cancer Inst. 51:1409-1413 (1973), and the cells contain estrogen receptors. The MCF-7 cell line used was obtained from the OSU Cell Culture Service laboratory, but originated from the Michigan Cancer Foundation, Detroit, Mich. The MCF-7 cells were seeded at 1×10^3 cells/cm^2 in 35 mm wells containing MEM (Earle base medium) supplemented with MEM non-essential amino acids (1.0 mM), L-glutamic acid (2.0 mM), penicillin and streptomycin (100 ug/ml) and fetal calf serum (10%) as described in Ueda et al., Cancer 46:2203-2206, (1980). The cells are maintained at 37° C. in a humidified atmosphere of 5% CO2 /20% O2 with the growth medium replaced twice a week. The retinoids were dissolved in ethanol and added to the culture medium starting 24 hrs. after seeding. […] Glucarate concentrations varied from 10^-5 to 10^-8 M. Cell counts were done with a Coulter counter and viability of the cells was determined by the trypan blue exclusion method and also by their ability to resume growth after removal of inhibitory agents. Cytotoxicity was evaluated by exposing the MCF-7 cells to equimolar concentrations of the agents and examining viability after 6 days of treatment. All experiments were done in triplicate.
In this experiment series glucarate as the soluble potassium salt and 13-cis-RA were evaluated, alone and in combination, for their ability to inhibit the growth of MCF-7 breast cancer cells in culture.
The log transformed dose refers to the level in μM added to the medium as was varied from […] (0.01) μM to 10^-1 μM. The retinoid vehicle, ethanol, was added to all cultures and all values have been corrected for its slight inhibitory effect (7%).

[5] = system: rat mammary tumors; assay: rat mammary tumor chemoprevention and shrinkage, effective dietary levels; assay type: in vivo; conditions: for dietary level when used individually: alone
[6] = weights of rats on diets (Example II, Table III); conditions: CGT 2%, RA 1.0 mmol/kg diet
Method: (§1) The 13-cis-RA was dissolved in a vehicle consisting of ethanol:tricaprylin:1:4 (v/v) and 4% w/v α-tochopherol. The mixture was added to the meal at the rate of 25 ml/2 kg then stored in the dark at -20° C. […] The same amount of vehicle was also added to the control diet and to the diets containing glucarate. Beginning 5 weeks post DMBA treatment, the rats were examined (palpated) twice every week for mammary tumors. They were also weighed once weekly throughout the 20 week period of the experiment.

[7] = CGT-supplemented diet vs normal chow diet; cited from earlier work
[8] = weight gain of rats on CGT and HPR diets (FIG. 4); assay type: in vivo, female Sprague Dawley rats; conditions: prolonged feeding of diets containing CGT and HPR
[9] = system: DMBA-induced mammary tumors; assay: chemoprevention of DMBA-induced rat mammary carcinogenesis (Example II); assay type: in vivo, female Sprague Dawley rats
Method: as §1

[10] = system: 7,12-dimethylbenz(a)anthracene-induced mammary tumors; assay: DMBA-induced mammary tumor formation in female Sprague Dawley rats (Example I); assay type: in vivo; conditions: 1.0% CGT
[11] = system: 7,12-dimethylbenz(a)anthracene-induced mammary tumorigenesis; conditions: cited from earlier work
[12] = system: chemical induction of tumors in rodent skin, mammary glands, lung and liver; conditions: cited from earlier work
[13] = system: MCF-7 cells; assay: growth of human breast cancer cell line MCF-7, 7 days; assay type: cell-based; conditions: MCF7, 168 h, 0.1 μM HPR, within 7 days, read-out: growth, % of the control
Method: When higher doses (2 mmol/kg diet) of HPR were used, growth arrest was followed within 5 to 10 days by 30% regression of the DMBA-induced mammary tumors. Also, HPR (0.1μM) inhibited the […] growth of the human breast cancer cell line (MCF-7) to 50% of the control within 7 days.

Compound: O=C(O)[C@@H](O)[C@H]1OC(=O)[C@H](O)[C@H]1O [GL, D-glucaro-1,4-lactone]
absorption and clearance from the body [1]: too rapidly absorbed and cleared from the body | inhibition of beta-glucuronidase ([2]; urine and intestine, 4-lactone): potent beta-glucuronidase inhibitor | inhibition of beta-glucuronidase ([2]; urine and intestine): potent inhibitor of beta-glucuronidase | No. of viable cells ([3]; GL 10^-4 M, control 60400 ± 2147): 49480 ± 3160 | activity at 1000 µM ([3]; Homo sapiens, MCF7, 120 h, GL 10^-3 M, parenthesised, control 11, read-out: free floating cells, % of control): 7% | viability at 1000 µM ([3]; Homo sapiens, MCF7, 120 h, GL 10^-3 M, read-out: viable cells, % of control): 54 ± 3% | activity at 100 µM ([3]; Homo sapiens, MCF7, 120 h, GL 10^-4 M, parenthesised, control 11, read-out: free floating cells, % of control): 6% | viability at 100 µM ([3]; Homo sapiens, MCF7, 120 h, GL 10^-4 M, read-out: viable cells, % of control): 82 ± 5%

Compound: 2,4-di-0-acetyl-D-glucaro-1-lactone
inhibition of beta-glucuronidase ([2]; urine, intestine and liver): effective as inhibitors of beta-glucuronidase

Compound: O=C(O)[C@@H](O)[C@@H](O)[C@H](O)[C@@H](O)C(=O)[O-].[K+] [GT, potassium hydrogen glucarate]
increase in inhibition of growth as a function of glucarate concentration ([4]; 1000-fold range of glucarate, at 13-cis-RA 0.0, 0.1 and 1.0 μM): 7-25% | inhibition at 0.01 µM [4]: 0% | inhibition at 0.1 µM [4]: 6% | inhibition at 1 µM [4]: 6% | inhibition at 10 µM [4]: 11% | inhibition of beta-glucuronidase ([2]; urine, intestine and liver): effective as inhibitors of beta-glucuronidase

Compound: O=C([O-])[C@@H](O)[C@@H](O)[C@H](O)[C@@H](O)C(=O)[O-].[Ca+2] [CGT, calcium glucarate]
dietary level when used individually [5]: 128 mmol/kg | Weights of rats on diets ([6]; 0 weeks on diet, control 177.2 +/-10.9): 182.2 +/-8.8 gm | Weights of rats on diets ([6]; 5 weeks on diet, control 218.3 +/-16.9): 224.8 +/-11.6 gm | Weights of rats on diets ([6]; 17 weeks on diet, control 247.0 +/-32.2): 250.3 +/-14.2 gm | food quantity and weight gain [7]: identical to those on the normal chow diet | weight gain of rats [8]: did not affect weight gain | effect on tumor incidence compared to control group ([9]; 2% CGT, 64 mmol/kg diet (group II)): did not show any effect on tumor incidence | inhibition of beta-glucuronidase ([2]; urine, intestine and liver): effective as inhibitors of beta-glucuronidase | inhibition of tumors/rat [10]: 9% | tumor induction, % of that in controls ([11]; 4% CGT diet, by 28 weeks): 30% | tumor regression ([11]; chow diet supplemented with CGT): some tumors on the chow diet supplemented with CGT underwent regression | inhibition of chemical induction of tumors ([12]; dietary, rodent skin, mammary glands, lung, liver): 50-70%

Compound: CC1=C(/C=C/C(C)=C/C=C/C(C)=C\C(=O)O)C(C)(C)CCC1 [13-cis-RA, 13-cis-retinoic acid, reference compound]
inhibition at 0.01 µM [4]: 2% | inhibition at 0.1 µM [4]: 9.2% | inhibition at 1 µM [4]: 12% | inhibition at 10 µM [4]: 52.2% | inhibitory activity of retinoid alone ([4]; concentrations above 1.0 μM): significant inhibitory activity | effect on tumor incidence over controls ([9]; 1.0 mmol/kg diet 13-cis-RA (group III)): slight, but insignificant, enhancement of tumor incidence

Compound: O=C(O)[C@H](O)[C@@H](O)[C@H](O)[C@H](O)CO [calcium gluconate, reference compound]
effect on tumor induction ([12]; equimolar calcium): no effect

weight gain of rats [8]: did not affect weight gain
Compound: CC1=C(/C=C/C(C)=C/C=C/C(C)=C/C(=O)Nc2ccc(O)cc2)C(C)(C)CCC1 [HPR, N-(4-hydroxyphenyl)retinamide, reference compound]
dietary level when used individually [5]: 2.00 mmol/kg | minimum dosage consistent with maximum inhibition of carcinogenesis ([5]; used alone): 1.0 to 1.5 mmol/kg | activity at 0.1 µM [13]: 50% | activity at 0.05 µM ([3]; Homo sapiens, MCF7, 120 h, HPR 5 × 10^-8 M, parenthesised, control 11, read-out: free floating cells, % of control): 7% | viability at 0.05 µM ([3]; Homo sapiens, MCF7, 120 h, HPR 5 × 10^-8 M, read-out: viable cells, % of control): 56 ± 4%
